This is an account of results in patent US20250340522A1, “ALBICIDIN DERIVATIVES, THEIR USE AND SYNTHESIS” (priority 2022, published 2025).

Converted amounts (≈) assume the structure as drawn.

In assay [1] the test system is Pantoea dispersa. The following applies: humans infected with the pathogen; background statement; cited from earlier work.
In assay [2] the test system is E. Coli. (50% human serum). Kind of assay: MIC, microdilution assay in presence of 50% human serum. It counts as cell-based. The following applies: Escherichia coli, 20 h, Gram-negativ. As to the method:
E. coli BW25113, S. typhimurium TA100; Bacillus subtilis DSM10; and M. phlei DSM 750 and human serum
(§1) The tests were performed using the micro dilution method.
(§2) The determination of MIC values was performed according to the ninth edition of the Approved Standard M07-A9 (CLSI. Methods for Dilution Antimicrobial Susceptibility Tests for Bacteria That Grow Aerobically; Approved Standard-Ninth Edition. CLSI document M07-A9. Wayne, PA: Clinical and Laboratory Standards Institute; 2012.)
(§3) The test was carried out for different bacterial strains (E. coli DSM 1116, E. coli BW25113 [gram negative], B. subtilis DSM 10 [gram positive], M. luteus DSM 1790 [gram positive], S. typhimurium TA100 [gram negative]) and M. phlei DSM 750. 20 µL of cryo stock of each strain were inoculated in 20 mL of LB media (Lysogeny broth: 10 g/L peptone, 5 g/L yeast extract, 5 g/L NaCl) followed by incubation over night at 37° C., 200 rpm. The test inoculum was adjusted by the 0.5 McFarland Standard (OD625 from 0.08 to 0.1). Within 15 min of preparation, the adjusted inoculum suspension was diluted in MHBII media (BBL TM Mueller-Hinton Broth II, Becton, Dickinson and Company, New Jersey/USA) so that each well contained approximately 5×10^5 CFU/mL in a final volume of 100 μL. 95 μL of the inoculum were applied per well and 5 μL of the (diluted) antibiotic substance were added.
(§4) Previously the dry antibiotic compounds were dissolved in DMSO (100%) with a concentration of 2560 μg/mL and the resulting stock solutions were further diluted in DMSO (100%). […] of each antibiotic dilution were applied to the microdilution tray to reach final concentrations of 64 μg/mL to 0.008 μg/ml. One row of each well plate was left as a growth control without antibiotic substances and another row of the microdilution tray was used as sterility control (only MHB II-media). The antimicrobial effect of the solvent (DMSO) was tested by adding 5 μL DMSO to several wells without antibiotics. Purity check and cell titer control were performed according to International Standard M07-A9 on Mueller-Hinton II Agar (Mueller Hinton II Broth, 15 g/L agar-agar). Both microdilution trays and agar plates were incubated at 37° C. for 20 h and subsequently analyzed visually.
(§5) The potency of an antibiotic is determined by the minimum inhibitory concentration (MIC). Contrary to intuition, a particularly low value is equated with a high potency.

Assay [3] deals with B. subtilis DSM 10. Nature of the assay: MIC, microdilution assay (CLSI M07-A9). The class given is cell-based. The following applies: Bacillus subtilis, DSM10, Gram-positiv, MHBII media, 37° C., 20 h, tested 64 to 0.008 μg/mL. How it is done: as §1, §2, §3, §4, §5
Assay [4] concerns E. coli BW25113. Nature of the assay: MIC, microdilution assay (CLSI M07-A9). The class given is cell-based. The following applies: Escherichia coli, Gram-negativ, MHBII media, 37° C., 20 h, tested 64 to 0.008 μg/mL. As to the method:
as §1, §2, §3, §4, §5
Background: Dilution methods test growth across graded concentrations, often in twofold steps.

The subject of assay [5] is M. luteus DSM 1790. Kind of assay: MIC, microdilution assay (CLSI M07-A9). The class given is cell-based. The following applies: Micrococcus luteus, DSM1790, Gram-positiv, MHBII media, 37° C., 20 h, tested 64 to 0.008 μg/mL. As to the method:
as §1, §2, §3, §4, §5

Assay [6] has as its system M. phlei DSM 750. Nature of the assay: MIC, microdilution assay (CLSI M07-A9). The class given is cell-based. The following applies: Mycolicibacterium phlei, DSM750, MHBII media, 37° C., 20 h, tested 64 to 0.008 μg/mL. As to the method:
as §1, §2, §3, §4, §5

Assay [7] has as its system S. typhimurium TA100. Kind of assay: MIC, microdilution assay (CLSI M07-A9). It counts as cell-based. The following applies: Salmonella enterica, Gram-negativ, MHBII media, 37° C., 20 h, tested 64 to 0.008 μg/mL, read-out: MIC S. Typhimirium. As to the method:
as §1, §2, §3, §4, §5

The test system of assay [8] is selected strains. Kind of assay: Antibacterial activity against selected strains, overall comparison with lead structure (Table 1). It counts as cell-based. The following applies: D-variations in Table 1. As to the method: as §1, §2
The test was carried out for different bacterial strains (E. coli DSM 1116, E. coli BW25113 [gram negative], B. subtilis DSM 10 [gram positive], M. luteus DSM 1790 [gram positive], S. typhimurium TA100 [gram negative]) and M. phlei DSM 750. 20 µL of cryo stock of each strain were inoculated in 20 mL of LB media (Lysogeny broth: 10 g/L peptone, 5 g/L yeast extract, 5 g/L NaCl) followed by incubation over night at 37° C., 200 rpm. The test inoculum was adjusted by the 0.5 McFarland Standard (OD625 from 0.08 to 0.1). […]
Previously the dry antibiotic compounds were dissolved in DMSO (100%) with a concentration of 2560 μg/mL and the resulting stock solutions were further diluted in DMSO (100%). […] Both microdilution trays and agar plates were incubated at 37° C. for 20 h and subsequently analyzed visually.
The potency of an antibiotic is determined by the minimum inhibitory concentration (MIC). […]

`O=C(O)[C@H]1/C(=C/CO)O[C@@H]2CC(=O)N21` [Clavulanic acid]: in assay [1], the “Treatment outcome of Pantoea dispersa infection” value (from here on “Treatment outcome”) is reported as “ineffective”.

For the compound `COc1c(NC(=O)c2ccc(NC(=O)c3ccc(NC(=O)[C@H](Cc4c[nH]nn4)NC(=O)c4ccc(NC(=O)/C(C)=C/c5ccc(O)cc5)cc4)cn3)c(OC)c2O)ccc(C(=O)O)c1O` [Compound 0, reference compound], the MIC was 0.5 µg/mL in assay [2]; 0.031 µg/mL (≈ 0.035 µM) in assay [3]; not above 0.016 µg/mL in assay [4]; 0.031 µg/mL (≈ 0.035 µM) in assay [5]; 0.125 µg/mL (≈ 0.141 µM) in assay [6]; not above 0.016 µg/mL in assay [7].

Take `COc1c(NC(=O)c2ccc(NC(=O)c3ccc(NC(=O)[C@H](Cc4c[nH]nn4)NC(=O)c4ccc(NC(=O)/C(C)=C/c5ccc(O)cc5)cc4)cc3F)c(OC)c2O)ccc(C(=O)O)c1O` [Compound 1]: the MIC in assay [2] was 1 µg/mL; in assay [3], 0.125 µg/mL (≈ 0.138 µM); in assay [4], 0.016 µg/mL (≈ 0.0177 µM); in assay [5] it was 0.031 µg/mL (≈ 0.0343 µM); in assay [6] it was 1 µg/mL (≈ 1.11 µM); in assay [7], not above 0.016 µg/mL.

`COc1c(NC(=O)c2ccc(NC(=O)c3c(F)cc(NC(=O)[C@H](Cc4c[nH]nn4)NC(=O)c4ccc(NC(=O)/C(C)=C/c5ccc(O)cc5)cc4)cc3F)c(OC)c2O)ccc(C(=O)O)c1O` [Compound 2]: the MIC was 0.5 µg/mL in assay [2]; 0.125 µg/mL (≈ 0.136 µM) in assay [3]; not above 0.016 µg/mL in assay [4]; 0.25 µg/mL (≈ 0.271 µM) in assay [5]; 1 µg/mL (≈ 1.09 µM) in assay [6]; not above 0.016 µg/mL in assay [7]. In addition, the “Activity compared with the lead structure (0)” value in assay [8] is listed as “about as active as the lead structure (0)”.

As for `COc1c(NC(=O)c2ccc(NC(=O)c3ccc(NC(=O)[C@H](Cc4c[nH]nn4)NC(=O)c4ccc(NC(=O)/C(C)=C/c5ccc(O)cc5)cc4)cc3Cl)c(OC)c2O)ccc(C(=O)O)c1O` [Compound 3], the MIC was 0.5 µg/mL in assay [2]; 0.063 µg/mL (≈ 0.0685 µM) in assay [3]; not above 0.016 µg/mL in assay [4]; 0.5 µg/mL (≈ 0.544 µM) in assay [6]; not above 0.016 µg/mL in assay [7]. Moreover, the “Activity compared with the lead structure (0)” value in assay [8] is listed as “about as active as the lead structure (0)”.

With `COc1c(NC(=O)c2ccc(NC(=O)c3ccc(NC(=O)[C@H](Cc4c[nH]nn4)NC(=O)c4ccc(NC(=O)/C(C)=C/c5ccc(O)cc5)cc4)cc3C(F)(F)F)c(OC)c2O)ccc(C(=O)O)c1O` [Compound 5], the MIC was not below 8 µg/mL in assay [2]; 4 µg/mL (≈ 4.2 µM) in assay [3]; 0.125 µg/mL (≈ 0.131 µM) in assay [4]; 4 µg/mL (≈ 4.2 µM) in assay [5]; 8 µg/mL (≈ 8.4 µM) in assay [6]; 0.031 µg/mL (≈ 0.0325 µM) in assay [7].

With `COc1c(NC(=O)c2ccc(NC(=O)c3ccc(NC(=O)[C@H](Cc4c[nH]nn4)NC(=O)c4ccc(NC(=O)/C(C)=C/c5ccc(O)cc5)cc4)cc3Br)c(OC)c2O)ccc(C(=O)O)c1O` [Compound 6], the MIC stood at 1 µg/mL in assay [2]; 0.125 µg/mL (≈ 0.13 µM) in assay [3]; 0.016 µg/mL (≈ 0.0166 µM) in assay [4]; 0.5 µg/mL (≈ 0.519 µM) in assay [5]; 1 µg/mL (≈ 1.04 µM) in assay [6]; 0.016 µg/mL (≈ 0.0166 µM) in assay [7].

Take `COc1c(NC(=O)c2ccc(NC(=O)c3ccc(NC(=O)[C@H](Cc4c[nH]nn4)NC(=O)c4ccc(NC(=O)/C(C)=C/c5ccc(O)cc5)cc4)cc3I)c(OC)c2O)ccc(C(=O)O)c1O` [Compound 8]: the MIC in assay [2] is not below 8 µg/mL; in assay [3] it was 0.5 µg/mL (≈ 0.495 µM); in assay [4] it was 0.063 µg/mL (≈ 0.0623 µM); in assay [5] it was 4 µg/mL (≈ 3.96 µM); in assay [6] it was 4 µg/mL (≈ 3.96 µM); in assay [7], 0.031 µg/mL (≈ 0.0307 µM).

As for `CN(C)c1cc(NC(=O)CNC(C)(C)C)c(O)c2c1C[C@H]1C[C@H]3[C@H](N(C)C)C(O)=C(C(N)=O)C(=O)[C@@]3(O)C(O)=C1C2=O` [tigecycline], the “Treatment outcome” value in assay [1] is given as “successful”.

With colistin, in assay [1], the “Treatment outcome” value is “successful”.

What is called MIC is the least concentration at which growth counts as inhibited.
